Structures can show the parent of a compound that is named as a salt.
Columns and labels:
[1] = system: sebum secretion; test: Inhibitory effect of MMPs inhibitors on sebum secretion in UVB-irradiated hairless mice (sebumeter); format: in vivo
Text: UV is generally known to activate the sebaceous gland cells on the skin and thereby to enhance the amount of sebum secretion, which has been reported on a model using hairless mice ([…] et al., Arch Dermatol., Vol. 284, 106 (1992)). In an experiment, Bissett et al. (Phytochem. Phytobiol, Vol. 46, 3, 367 (1987)) applied the method of preparing a light-aged skin, and induced the activation of sebaceous gland cells and enhancement in the amount of sebum by irradiating the dorsal area of the […] repeatedly three times per week for 5-8 weeks by controlling the amount of UVB irradiation to under the […] formation level. […] As the control, a group in which the solvent for the test substance was applied in a similar protocol was set up, and the effect of inhibiting sebum was evaluated by comparing the amount of sebum between the two. The measurement of sebum amount was performed using a sebumeter (COURAGE KHAZAKA company). From the measured values, the ratio (%) of sebum inhibition was calculated based on the following criteria: [formula]

[2] = system: gelatinase belonging to the MMPs; settings: skin irradiated with UVB for 10 weeks, EDTA (100 mM) added in vitro; FIG. 3C
Text: By staining gelatin with the Ponceau solution, the gelatin digested area (the area in which the gelatinase activity is present) was rendered white for detection.

[3] = system: sebaceous gland; test: Effect of transdermal application of an MMPs inhibitor on sebaceous gland development under UVB stimulation; format: in vivo, hairless mice; settings: FIG. 4A vs solvent only FIG. 4B
Text: It is known that when UVB (50 mJ/cm^2-200 mJ/cm^2; 50 mJ/cm^2 at the start of irradiation, the amount of irradiation is increased stepwise depending on the number of irradiations) below the erythema formation level is repeatedly irradiated to hairless mice, the sebaceous gland becomes developed and the amount of sebum increases (R. H. Lesnik et al., Arch Dermatol., Vol. 284, 106 (1992)). FIG. 2A and FIG. 2B represent the H&E stains of the UVB-non-irradiated tissue and the UVB-irradiated tissue. It is observed that UVB irradiation results in the thickening of the epidermis as well as the development of the sebaceous gland.
(§1) The effect of the transdermal application of an MMPs inhibitor on the sebaceous gland development and the gelatinase activity present in the sebaceous gland is shown for active substance A as an example (FIG. 4A and FIG. 4B).

[4] = system: gelatinase; test: Gelatinase activity in the sebaceous gland after transdermal application, in situ zymography; format: in vivo, hairless mice; settings: FIG. 4A vs solvent only FIG. 4B
Text: as §1

[5] = 100 μl of 1% test substance applied three times per week immediately after each UV irradiation, vs solvent group, hairless mice dorsal area, 5-8 weeks UVB

COc1cc(/C=C/C(=O)CC(=O)/C=C/c2ccc(O)c(OC)c2)ccc1O [Curcumine, curcumine]
Ratio of sebum inhibition (%) [1, 5]: 77%

O=C(O)CN(CCN(CC(=O)O)CC(=O)O)CC(=O)O [EDTA]
Gelatin degradation at the epidermal area and the sebaceous gland area [2]: inhibited the gelatin degradation

C[C@]12CC[C@@H]3c4ccc(O)cc4CC[C@H]3[C@@H]1CC[C@@H]2O [Estradiol, estradiol, reference compound]
Ratio of sebum inhibition (%) ([1]; positive control, 0.6 mg/kg oral administration, UVB-irradiated hairless mice): 65%

COc1ccc(S(=O)(=O)N(Cc2cccnc2)[C@@H](C(=O)NO)C(C)C)cc1 [Hydrochloride of active ingredient A]
Ratio of sebum inhibition (%) [1, 5]: 79%

COc1ccc(S(=O)(=O)N(Cc2cccnc2)[C@@H](C(=O)NO)C(C)C)cc1 [active substance A]
Development of the sebaceous gland area [3]: suppresses the development of the sebaceous gland area | Gelatinase activity present in the sebaceous gland [4]: inhibited
